Laboratory results from the NIST ThermoML archive (doi:10.1016/j.jct.2010.05.002).

Test: molar heat capacity at constant pressure
Conditions: 101.33 kPa, Vacuum adiabatic calorimetry

Cc1ccc(-c2ccccc2)cc1 [4-methylbiphenyl]
Conditions	molar heat capacity at constant pressure [J/K/mol]
200.03 K, Crystal 2	158.25
201.21 K, Crystal 2	159.08
202.67 K, Crystal 2	160.39
204.13 K, Crystal 2	161.16
205.59 K, Crystal 2	161.88
207.05 K, Crystal 2	163.01
208.5 K, Crystal 2	164.47
209.95 K, Crystal 2	165.42
211.41 K, Crystal 2	166.95
212.86 K, Crystal 2	167.72
214.31 K, Crystal 2	168.81
215.75 K, Crystal 2	169.75
217.19 K, Crystal 2	170.91
218.63 K, Crystal 2	172.34
220.07 K, Crystal 2	173.54
221.51 K, Crystal 2	174.81
224.33 K, Crystal 2	177.09
225.77 K, Crystal 2	178.63
227.21 K, Crystal 2	179.26
228.64 K, Crystal 2	180.46
230.07 K, Crystal 2	181.65
231.5 K, Crystal 2	183.05
232.92 K, Crystal 2	183.59
234.35 K, Crystal 2	184.76
235.77 K, Crystal 2	186
237.2 K, Crystal 2	186.68
238.62 K, Crystal 2	188.83
240.04 K, Crystal 2	189.96
241.46 K, Crystal 2	190.95
242.88 K, Crystal 2	191.92
245.71 K, Crystal 2	194.12
247.06 K, Crystal 2	195.69
248.47 K, Crystal 2	196.82
249.87 K, Crystal 2	197.8
251.28 K, Crystal 2	198.95
252.68 K, Crystal 2	199.51
254.07 K, Crystal 2	203.15
255.46 K, Crystal 2	205.87
256.86 K, Crystal 2	204.64
258.26 K, Crystal 2	207.95
259.65 K, Crystal 2	209.9
261.05 K, Crystal 2	211.67
262.45 K, Crystal 2	213.5
263.84 K, Crystal 2	216.69
265.26 K, Crystal 2	218.04
265.74 K, Crystal 2	214.98
266.62 K, Crystal 2	215.48
267.35 K, Crystal 2	216.35
268.06 K, Crystal 2	216.34
268.77 K, Crystal 2	218.41
269.46 K, Crystal 2	217.65
270.14 K, Crystal 2	220.43
270.81 K, Crystal 2	221.73
271.48 K, Crystal 2	224.8
272.13 K, Crystal 2	226.98
272.79 K, Crystal 2	228.68
273.44 K, Crystal 2	230.85
274.09 K, Crystal 2	231.46
274.73 K, Crystal 2	233.58
275.38 K, Crystal 2	235.91
276.02 K, Crystal 2	236.58
276.54 K, Crystal 2	238.77
277.18 K, Crystal 2	240.39
277.82 K, Crystal 2	243.02
278.45 K, Crystal 2	244.38
279.09 K, Crystal 2	245.39
279.72 K, Crystal 2	247.06
280.35 K, Crystal 2	249.06
280.98 K, Crystal 2	250.28
281.61 K, Crystal 2	250.82
282.22 K, Crystal 2	253.9
282.84 K, Crystal 2	255.25
283.47 K, Crystal 2	256.25
284.09 K, Crystal 2	257.26
284.71 K, Crystal 2	258.2
285.32 K, Crystal 2	261
285.94 K, Crystal 2	262.67
286.41 K, Crystal 2	265.19
287.03 K, Crystal 2	266.14
287.64 K, Crystal 2	267.86
288.24 K, Crystal 2	270.21
289.45 K, Crystal 2	271.63
290.05 K, Crystal 2	274.89
290.65 K, Crystal 2	278.67
291.25 K, Crystal 2	281.37
291.85 K, Crystal 2	283.3
292.44 K, Crystal 2	287.63
293.04 K, Crystal 2	291.45
293.63 K, Crystal 2	298.7
294.21 K, Crystal 2	301.08
294.8 K, Crystal 2	306.74
295.38 K, Crystal 2	315.73
295.81 K, Crystal 2	323.56
296.38 K, Crystal 2	356.89
296.78 K, Crystal 2	604.38
298.45 K, Crystal 1	252.48
299.16 K, Crystal 1	242.36
299.72 K, Crystal 1	239.35
300.27 K, Crystal 1	238.79
300.79 K, Crystal 1	244.43
301.28 K, Crystal 1	240.52
301.77 K, Crystal 1	242.22
302.25 K, Crystal 1	243.96
302.73 K, Crystal 1	242.88
303.21 K, Crystal 1	243.63
303.43 K, Crystal 1	242.23
303.9 K, Crystal 1	242.44
304.37 K, Crystal 1	241.56
304.84 K, Crystal 1	243.77
305.31 K, Crystal 1	244.44
